One test deals with L1210 leukemia cells. In words: Inhibition of proliferation of L1210 leukemia cells (trypan blue count of surviving cells after 4 days). Particulars: RPMI medium with 10% FCS, 37°C, ratio of proliferation against 0.1% ethanol control. The class given is cell-based. The method, then: Measurement of the action of inhibiting proliferation of […] leukemia cell:-
L1210 leukemia cells were added to an RPMI medium containing 10% FCS (fetal calf serum), and the concentration of the cells was adjusted to 1 × 10^5 cells/ml. […] Prior to use, the final concentration of the ethanol solution was adjusted to less than 0.1%, and it was added to the culture medium. The culture medium was then maintained at 37°C in a stationary condition for 4 days. After the cultivation, the number of surviving cells was measured by dyeing with trypan flue. As a control, 0.1% ethanol was used. A dose-reaction curve was plotted from the ratios of proliferation against the control, and IC50 was determined.

Another test deals with ethanol ulcer. In words: Ethanol ulcer test (inhibitory activity on ethanol ulcer). The class given is in vivo, SD-strain rats. Particulars: rats; for Ulcer index (mm): 75% ethanol 30 min later, stomach examined 1 h later; for ED50: p.o., ethanol ulcer. How it is done: Measurement of inhibitry activity on ethanol ulcer:- An ethanol ulcer test was carried out by the following processure. SD-strain rats (body weight 200 to 220 g; 7 weeks old) were fasted for 24 hours, and a solution of each of the test compounds in physiological saline buffered with phosphate buffer at pH 7.5 was orally administered. Thirty minutes after the administration, 75% ethanol was orally administered in a dose of […]. One hour later, the abdomen was incised to isolate the stomach. […] The total of these lengths was defined as the ulcer index. A control group was given physiological saline buffered with phosphate buffer (pH 7.5) and 75% ethanol.

The subject of the next test is blood pressure. The test can be described thus: Hypotensive activity by intravenous injection under anesthesia. The class given is in vivo, Male wister rats. To be noted: anesthetized rats, i.v.; dosage which caused a 20% lowering of the mean blood pressure. How it is done: Measurement of the hypotensive activity:-
The actions of the 5-thiaprostaglandin of the invention on the blood pressure was examined by intravenous injection under anesthesia.
Male wister rats weighing about 250 g were used. Urethane (500 mg/kg) and a-chloralose (100 mg/kg) were intraperitoneally administered to the rats. The rats were anesthetized and fixed in place.
Each of the test compounds was dissolved in a small amount of ethanol and diluted with physiological saline to adjust the final ethanol concentration to not more than 5%. The solution was intravenously injected into the rats through a catheter inserted into the femoral vein.
The blood pressure of the rats was measured by a pressure transducer through a catheter inserted into the carotid artery of the rats.
The action of the test compound on the blood pressure was expressed as the dosage (ED20, u/kg) of the test compound which caused a 20% lowering of the mean blood pressure before administration of the compound.

For a further test, the system named is platelet aggregation. In words: In vitro inhibition of ADP-induced platelet aggregation in platelet-rich plasma (aggregometer). The class given is cell-based, Japanese domestic white male rabbits. The method, then: in vitro inhibitory activity of platelet aggregation:-
The in vitro platelet aggregation imhibiting activity of the compounds of the invention were examined by using rabbits. Blood was withdrawn from the ear vein of Japanese domestic white male rabbits weighing 2.5 to 3.5 kg. A mixture of a 3.8% trisodium citrate solution and the blood in a ratio of 1:9 was centrifuged at a speed of 1000 rpm for 10 minutes. The upper layer was separated as platelet- rich plasma (PRP). The lower layer was further centrifuged at a speed of 28000 rpm for 10 minutes. The upper layer was separated as platelet-poor plasma (PPP). The number of platelets was adjusted to 6 x 10^5/µℓ to 7 x 10^5/µℓ by diluting the PRP with PPP. 25 microliters of the test compounds prepared as shown below was added in an amount of 25 to 250 microliters of PRP after the adjustment, and the mixture was pre-incubated at 37°C for 2 minutes, and then 10 µM (final) of ADP was added. By using an aggregometer, changes in transmission were recorded.
The drug was dissolved in ethanol to a concentration of 10 mg/mt, and successively diluted with phosphate buffer (pH 7.4) prior to use.
The rate of inhibition of platelet aggregation was determined from the following equation. [formula] • T: the transmittance of the system containing the phosphate buffer, • T : the transmittance of the system to which the test drug was added.
The minumum concentration of the drug which inhibited more than 50% of platelet aggregation was shown as an IC50 value.

≈ marks a conversion by molar mass, not a printed value. Where two headings read alike, the source gives them in different places.

In general, IC50 refers to the concentration that inhibits the measured activity by half. With 5-thiaprostaglandin E1 methyl ester, the IC50 in the test with L1210 leukemia cells was found to be 0.6 µg/mL.
Broadly, the ED50 is the dose at which the effect has come halfway, by size or by number of responders. Regarding “17(S),20-dimethyl-5-thiaprostaglandin E1 methyl ester”, the “Ulcer inhibiting rate (%)” value is 46.8% in the test on ethanol ulcer (p.o. 0.3 µg/kg), 97.7% with ethanol ulcer (p.o. 1 µg/kg) and 100% in the test with ethanol ulcer (p.o. 3 µg/kg). In addition, the “Ulcer index (mm)” value in the test on ethanol ulcer (p.o. 0.3 µg/kg) was found to be 18.4 ±4.3 mm; in the test with ethanol ulcer (p.o. 1 µg/kg), 0.8 ±0.6 mm; in the test with ethanol ulcer (p.o. 3 µg/kg) it was 0 mm. In the test with ethanol ulcer, the ED50 was 0.35 µg/kg. The same compound displayed an ED20 in the test on blood pressure of 2.7 µg/kg. In the test with platelet aggregation (rabbit PRP, 10 µM (final) ADP, minimum concentration which inhibited more than 50% of platelet aggregation), this compound yielded an IC50 of 0.33 µg/mL.
Turning to `CCCCCC(O)C=CC1C=CC(=O)C1=CCSCCCC(=O)OC` (centres unmarked) [12-epimer of (7E)-Δ^7-5-thiaprostaglandin A1 methyl ester], the IC50 in the test on L1210 leukemia cells was 0.3 µg/mL.
Take `CCCC[C@@H](C)C[C@H](O)/C=C/[C@H]1[C@H](O)CC(=O)[C@@H]1CCSCCCC(=O)OC` [17(R),20-dimethyl-5-thiaprostaglandin E1 methyl ester]: the IC50 with platelet aggregation (Oryctolagus cuniculus, rabbit PRP, 10 µM (final) ADP, minimum concentration which inhibited more than 50% of platelet aggregation, read-out: IC50) was determined as 0.36 µg/mL (≈ 0.868 µM).
With `CCCCC[C@H](O)/C=C/[C@H]1C=CC(=O)/C1=C/CSCCCC(=O)OC` [(7E)-Δ^7-5-thiaprostaglandin A1 methyl ester], the IC50 in the test with L1210 leukemia cells (Mus musculus, 96 h, read-out: IC50) was 0.2 µg/mL.
Regarding `CCCCC[C@H](O)/C=C/[C@H]1[C@H](O)CC(=O)[C@@H]1CCCCCCC(=O)O` [Prostaglandin E1, reference compound], in the test with ethanol ulcer (Rattus norvegicus, po, p.o. 3 µg/kg, read-out: Ulcer inhibiting rate (%)), the inhibition at 0.003 mg/kg came out at 50%. For the same compound, in the test with ethanol ulcer (Rattus norvegicus, po, p.o. 10 µg/kg, read-out: Ulcer inhibiting rate (%)), the inhibition at 0.01 mg/kg was 96.2%. The ED50 with ethanol ulcer (Rattus norvegicus, po, read-out: ED50) turned out to be 3 µg/kg. In addition, the figures for the “Ulcer index (mm)” value in the test on ethanol ulcer (p.o. 3 µg/kg) and with ethanol ulcer (p.o. 10 µg/kg) were 17.1 ±5.5 mm and 1.3 ±0.8 mm, respectively. The IC50 with platelet aggregation (Oryctolagus cuniculus, Platelet, in vitro, ADP 10 µM (printed "ADPlOpM"), read-out: inhibiting platelet aggregation activity (IC50)) is 0.03 µg/mL (≈ 0.0846 µM).
Take “(7E)-Δ^7-5-thiaprostaglandin E1 methyl ester and its 15-epimer [A mixture of (7E)-Δ^7-5-thiaprostaglandin E1 methyl ester of its 15-epimer]”: the IC50 with L1210 leukemia cells came out at 0.4 µg/mL.

The values are drawn from patent publication EP0112633A2, “Novel 5-thiaprostaglandin, process for production thereof, and pharmaceutical use thereof” (TEIJIN LIMITED, priority 1982, dated 1984).
